From patent publication US8952192B2, “Phosphorylated and branched dihydroxy-pentane-dione (DPD) analogs as quorum sensing inhibitors in bacteria” (University of Maryland, College Park, priority 2011, dated 2015)
Entries after “also recorded” stand apart in the source; their conditions may differ.

Experiments:
[1] = system: lsr expression in E. coli (lsr-lacZ reporter strains); assay: QS response (lsr expression): AI-2 dependent β-galactosidase production, Miller assay; format: cell-based, Escherichia coli; conditions: for IC50: concentration reducing lsr expression (β-galactosidase production) to 50% in the presence of 20 μM exogenously added synthetic DPD, read-out: IC50 of analog (nM) to inhibit QS in E. coli; for inhibition of AI-2-mediated lsr expression (β-galactosidase), in words: 20 μM AI-2 (DPD) + 20 μM analog
Protocol: (§1) The panel of C1-alkyl analogs was screened to identify QS modulators in the enteric bacteria E. coli and S. typhimurium. Transcription of the QS associated lsr operon, by using lsr-lacZ reporter strains (Table 2) which produce β-galactosidase in response to added AI-2 was monitored. In order to first establish if the analogs were agonists or antagonists in the QS circuit, the analogs were incubated with E. coli LW7 pLW11 and S. typhimurium MET715 (FIG. 19a-b) both of which are luxS^−. None of the analogs, except ethyl-DPD behaved as agonists for lsr expression. Previous studies investigating AI-2 antagonism in P. aeruginosa or in S. typhimurium were carried out using chemically synthesized AI-2 added to luxS^− cells. […] The same trends were obtained by adding a 1:1 ratio of enzymatically synthesized AI-2 and DPD analogs to the luxS^− strains E. coli LW7 pLW11 and S. typhimurium MET715 (FIG. 11a-b). None of the tested DPD analogs were bacteriocidal or bacteriostatic as the OD600 values of E. coli ZK126 pLW11 and S. typhimurium MET708 in the presence and absence of the analogs were similar (FIG. 10). Though the QS circuitry of the enteric organisms, E. coli and S. typhimurium are homologous they respond differently to the DPD analogs. The E. coli QS circuitry is susceptible to being silenced by a variety of DPD analogs of different shapes and sizes whereas in S. typhimurium, only a handful of DPD analogs could antagonize the action of AI-2. […] Isobutyl-DPD emerged as an effective and non-species-specific quencher; causing significant lsr expression knockdowns in both E. coli and S. typhimurium.
(§2) The QS response indicated by lsr gene expression was analyzed in pure culture studies by culturing E. coli LW7 pLW11, E. coli ZK126 pLW11 and S. typhimurium MET708, S. typhimurium MET715 overnight in LB medium supplemented with appropriate antibiotics as stated previously. These cells were then diluted into fresh LB medium (with antibiotics) and grown to an OD600 of 0.8-1.0 at 30° C., 250 rpm. Cells were then collected by centrifugation at 10,000×g for 10 minutes, and resuspended in 10 mM phosphate buffer. AI-2 (20 μM) and the respective analog (20 μM) were added to the E. coli or S. typhimurium suspension for 2 hours at 37° C. AI-2 dependent β-galactosidase production was quantified by the Miller assay.
(§3) The QS response indicated by lsr gene expression was analyzed in pure culture studies by culturing E. coli LW7 pLW11 and S. typhimurium MET715 overnight at 30° C. in LB medium supplemented with appropriate antibiotics as stated previously. These cells were then diluted into fresh LB medium (with antibiotics) and grown to an OD600 of 0.4-0.8 at 37° C., 250 rpm. Cells were then collected by centrifugation at 10,000×g for 10 min and resuspended in 10 mM phosphate buffer. AI-2 (20 μM) and the respective analog (20 μM) were added to the E. coli or S. typhimurium suspension for 2 h at 37° C. AI-2 dependent β-galactosidase production was quantified by the Miller assay.
(§4) The QS response indicated by lsr gene expression was analyzed in pure culture studies by culturing E. coli LW7 pLW11, E. coli ZK126 pLW11 and S. typhimurium MET708, S. typhimurium MET715 overnight in LB medium individually supplemented with appropriate antibiotics, as specified above. These cells were diluted into fresh LB medium (with antibiotics) and grown to an OD600 of 0.8-1.0 at 30° C., 250 rpm. Cells were collected by centrifugation at 10,000×g for 10 minutes, and resuspended in 10 mM phosphate buffer. AI-2 (20 μM) and the respective analog (20 μM) were added to the E. coli or S. typhimurium suspension for 2 hours at 37° C. AI-2 dependent β-galactosidase production was quantified by the Miller assay.

[2] = system: lsr expression in S. typhimurium (lsr-lacZ reporter strains); assay: as above; format: cell-based, Salmonella typhimurium; conditions: for IC50: concentration reducing lsr expression (β-galactosidase production) to 50% in the presence of 20 μM exogenously added synthetic DPD, read-out: IC50 of analog (nM) to inhibit QS in S. typhimurium
Protocol: as §1, §2, §3, §4

V. harveyi = assay: DPD analogs and representative bacterial species affected (Table 1); format: cell-based; parameters: key: x: DPD Analogs and representative bacterial species affected
E. coli = assay: as above; format: cell-based; parameters: key: x: DPD Analogs and representative bacterial species affected
LsrK = molecular target: T1, LsrK (Escherichia coli, UniProt P77432); assay: In vitro phosphorylation of analogs by LsrK (TLC, autoradiography); format: biochemical, E. coli; conditions: for phosphorylation by E. coli LsrK: incubation with LsrK in vitro for one hour (Example 6)
T1 construct: made in house; host or cells: E. coli BL21
T1 sequence (P77432 whole entry): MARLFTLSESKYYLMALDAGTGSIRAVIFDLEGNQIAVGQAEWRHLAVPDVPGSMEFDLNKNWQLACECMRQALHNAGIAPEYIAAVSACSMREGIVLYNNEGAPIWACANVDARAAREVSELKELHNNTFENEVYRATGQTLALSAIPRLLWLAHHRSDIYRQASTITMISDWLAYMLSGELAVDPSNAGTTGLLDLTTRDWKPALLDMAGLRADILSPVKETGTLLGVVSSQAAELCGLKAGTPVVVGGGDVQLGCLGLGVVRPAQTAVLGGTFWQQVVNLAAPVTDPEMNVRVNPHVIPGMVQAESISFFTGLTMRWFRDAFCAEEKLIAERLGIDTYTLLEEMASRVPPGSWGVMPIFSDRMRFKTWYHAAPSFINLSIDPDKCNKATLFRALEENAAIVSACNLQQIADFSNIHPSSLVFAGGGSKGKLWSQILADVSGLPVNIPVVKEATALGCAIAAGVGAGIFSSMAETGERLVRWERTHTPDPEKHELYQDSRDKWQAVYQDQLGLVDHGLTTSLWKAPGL
Protocol: LsrK was purified and from E. coli BL21 pET200-LsrK as described before. Phosphorylated analogs were synthesized by incubating 1 μM) LsrK with 40 μM ATP (Roche), […] of [γ-^32P] […] A 5 μL aliquot was then spotted onto a cellulose TLC plate (Selecto Scientific). The plate was developed using 0.8 M LiCl as the solvent, air dried and developed via autoradiography.
LsrK was purified from E. coli BL21 pET200-LsrK as described before. Phosphorylated analogs were synthesized by incubating (1 μM) LsrK with (40 μM) ATP (Roche), ([…]) of [P^32] […] An aliquot (2.5 μL) was then spotted onto a cellulose TLC plate (Selecto Scientific). The plate was developed using 0.8 M LiCl as the solvent, air dried and developed via autoradiography.

S. mutans = assay: DPD analogs and representative bacterial species affected (Table 1); format: cell-based; parameters: key: x: DPD Analogs and representative bacterial species affected
[3] = system: pyocyanin production in P. aeruginosa PAO1; assay: QS response (pyocyanin production); format: cell-based; conditions: pure culture P. aeruginosa PAO1, DPD analogs (100 μM)
Protocol: Identifying Modulators of P. aeruginosa QS. DPD analogs (100 μM) were screened for activity in P. aeruginosa PAO1 by monitoring pyocyanin production (FIG. 34b and FIG. 38).
The cells were grown with the analog at 3 mL total volume in 50 mL flasks in LB medium, with continuous shaking. Between 22-24 h, when the cells turned green after pyocyanin secretion, the pigment was extracted. The pyocyanin quantification assay was conducted as described. 2 mL chloroform was added to the 3 mL culture and pipetted up and down. 1 mL of the chloroform was transferred to a separate tube and the pyocyanin was re-extracted into 200 μL of 0.2 M HCl. The absorbance of the solution was measured at OD 520 nm. To calculate the concentration of pyocyanin extracted as μg/mL, the OD at 520 nm was multiplied by 17.07.

[4] = system: lsr expression in E. coli (lsr-lacZ reporter strains); assay: QS response (lsr expression): AI-2 dependent β-galactosidase production, Miller assay; format: cell-based, Escherichia coli; conditions: E. coli SH3 (lsrK−, luxS−), 20 μM ethyl-DPD
S. typhimurium MET708 = assay: Trispecies synthetic ecosystem (S. typhimurium, V. harveyi, E. coli): β-galactosidase activity; format: cell-based; conditions: trispecies co-culture, lacZ activity after 4 hours
From the text: (§5) To investigate the effect of the DPD analogs in a mixed bacterial environment, a synthetic ecosystem composed of three different bacterial populations was assembled. Specifically, S. typhimurium MET708, V. harveyi BB170 and E. coli W3110 (pCT6), each luxS^+ (Table 2), and each producing their native AI-2 were co-cultured in the same tubes. By design, each species was selected so that a different reporter probe would indicate the specific bacterium's QS response: S. typhimurium (MET708) expresses β-galactosidase; V. harveyi (BB170) elicits bioluminescience; and E. coli (W331) are engineered to synthesize GFP. In this way, their responses can be differentiated and quantified in response to AI-2.
(§6) The S. typhimurium MET708, V. harveyi BB170 and E. coli W3110 pCT6 were each cultured separately overnight in LM medium supplemented with the appropriate antibiotic. […] The V. harveyi luminescence response was measured after 2.5 hours. The S. typhimurium lacZ (β-galactosidase) activity was measured after 4 hours. The E. coli response was determined after 8 hours, by fixing the cells with 1:1 cold 4% paraformaldehyde and using flow cytometric analysis. Samples were analyzed by flow cytometery (FACS Canto II, BD 394 Biosciences), with 20,000 gated events analyzed per sample.

V. harveyi BB170 = assay: QS response (bioluminescence), trispecies synthetic ecosystem; format: cell-based; conditions: LM media
Protocol: The effect of isobutyl-DPD or isopropyl-DPD on QS associated bioluminescence production by V. harveyi was recorded by measuring the light production from reporter strain, V. harveyi BB170. The analogs were added at concentrations of (20 μM or 40 μM) to V. harveyi BB170 which was assayed as previously described.
The S. typhimurium MET708, V. harveyi BB170 and E. coli W3110 pCT6 were each cultured separately overnight in LM medium supplemented with the appropriate antibiotic. V. harveyi BB170, S. typhimurium MET708 and E. coli MDAI-2 were diluted (1:4:8), respectively, into a single 1 ml volume of fresh LM medium without antibiotics. The co-culture was supplemented with either 20 μM or 40 μM analog initially and again after 3 and 5 hours of growth. The V. harveyi luminescence response was measured after 2.5 hours. The S. typhimurium lacZ (β-galactosidase) activity was measured after 4 hours. The E. coli response was determined after 8 hours, by fixing the cells with 1:1 cold 4% paraformaldehyde and using flow cytometric analysis. Samples were analyzed by flow cytometery (FACS Canto II, BD 394 Biosciences), with 20,000 gated events analyzed per sample.

E. coli W3110 pCT6 = assay: Trispecies synthetic ecosystem: AI-2 stimulated GFP expression, flow cytometry; format: cell-based; conditions: trispecies co-culture, flow cytometry after 8 hours; 60.7% without analog
From the text: as §5, §6

## CCCCC(=O)C(=O)[C@@H](O)CO [Butyl-DPD, butyl-DPD]
[1]
  IC50: 2970 nM
[2]; S. typhimurium MET708 (luxS+), cells produce their own AI-2
  effect on native lsr expression (QS response): considerable QS response reduction; also recorded: significantly inhibited signaling
[2]
  IC50: > 40000 nM
V. harveyi
  bacterial species affected: V. harveyi: x
E. coli
  bacterial species affected: E. coli: x

## O=C(C(=O)C1CCC1)C(O)CO (centres unmarked) [Cyclobutyl-DPD, Cyclobutyl DPD]
[1]; E. coli LW7 pLW11 (luxS−)
  inhibition of AI-2-mediated lsr expression (β-galactosidase), in words: inhibit lsr expression
LsrK
  phosphorylation by E. coli LsrK: significantly phosphorylated
S. mutans
  bacterial species affected: S. mutans: x

## O=C(C(=O)C1CCCCC1)C(O)CO (centres unmarked) [Cyclohexyl-DPD, cyclohexyl-DPD]
[1]; E. coli LW7 pLW11 (luxS−)
  inhibition of AI-2-mediated lsr expression (β-galactosidase), in words: attenuated lsr expression in E. coli to a lesser extent
[2]; S. typhimurium MET715 (luxS−), 20 μM AI-2 (DPD) + 20 μM analog
  effect on AI-2-mediated lsr expression (β-galactosidase), in words: increased expression
LsrK
  phosphorylation by E. coli LsrK: weakly phosphorylated
LsrK; listed as cyclohexyl
  phosphorylation by E. coli LsrK: not phosphorylated
V. harveyi
  bacterial species affected: V. harveyi: x
E. coli
  bacterial species affected: E. coli: x

## CCCCCCCC(=O)C(=O)[C@@H](O)CO [Heptyl-DPD, heptyl-DPD]
[1]
  IC50: 15900 nM
[2]
  IC50: > 40000 nM
[3]
  inhibition of pyocyanin production: some inhibition
E. coli
  bacterial species affected: E. coli: x

## CCC(=O)C(=O)[C@@H](O)CO [ethyl-DPD]
[1]; E. coli LW7 pLW11 (luxS−), analog only, no AI-2 added
  agonist activity for lsr expression: agonist
[2]; S. typhimurium MET715 (luxS−), analog only, no AI-2 added
  agonist activity for lsr expression: agonist
V. harveyi
  bacterial species affected: V. harveyi: x
E. coli
  bacterial species affected: E. coli: x
[4]
  lsr transcription in LsrK knockout strain: did not initiate lsr transcription

## O=C(C(=O)C(O)CO)c1ccco1 (centres unmarked) [furanosyl-DPD, Furanyl DPD]
[1]; E. coli LW7 pLW11 (luxS−)
  inhibition of AI-2-mediated lsr expression (β-galactosidase), in words: minimal
S. mutans
  bacterial species affected: S. mutans: x

## CC(C)C(=O)C(=O)C(O)CO (centres unmarked) [isopropyl-DPD]
[1]; E. coli ZK126 pLW11 (luxS+), cells produce their own AI-2
  effect on native lsr expression (QS response): substantial reduction; also recorded: partial antagonist
LsrK; incubation with LsrK and excess ATP for 2 hours (Example 1)
  phosphorylation by LsrK: phosphorylated
S. typhimurium MET708
  reduction of the S. typhimurium response, in words: unable to cause any reduction
V. harveyi BB170; 20 μM
  decrease of bioluminescence in V. harveyi: 50%
V. harveyi BB170; 40 μM
  decrease of bioluminescence in V. harveyi: 50%
E. coli W3110 pCT6
  QS positive (green, GFP) cells of the E. coli population after analog addition: 21.4%
E. coli
  bacterial species affected: E. coli: x
